In PubChem BioAssay (NCI):
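Results reflect a 48-hour exposure of cells in 96-well plates to compound at five concentrations. GI50 is the concentration that inhibits growth by half. Definition used: TGI = concentration required for complete inhibition of growth.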

Tests used:
Experiment in all cases: inhibition of tumour cell growth, NCI panel, 48 h
[1] = tested on: SF-295 CNS
[2] = tested on: PC-3 prostate
[3] = tested on: KM12 colon
[4] = tested on: DU-145 prostate
[5] = tested on: SK-MEL-5 melanoma
[6] = tested on: ACHN renal
[7] = tested on: MCF7 breast
[8] = tested on: U251 CNS
[9] = tested on: MDA-MB-231 breast
[10] = tested on: DLD-1 colon
[11] = tested on: KM20L2 colon
[12] = tested on: RPMI-8226 leukemia
[13] = tested on: COLO 205 colon
[14] = tested on: A498 renal
[15] = tested on: NCI/ADR-RES ovarian
[16] = tested on: HT29 colon
[17] = tested on: K-562 leukemia
[18] = tested on: EKVX NSCLC
[19] = tested on: OVCAR-4 ovarian
[20] = tested on: NCI-H522 lung
[21] = tested on: HCT-15 colon
[22] = tested on: UO-31 renal
[23] = tested on: HL-60(TB) leukemia
[24] = tested on: HCT-116 colon
[25] = tested on: SN12C renal
[26] = tested on: SW-620 colon
[27] = tested on: A549 NSCLC
[28] = tested on: OVCAR-8 ovarian
[29] = tested on: MDA-MB-435
[30] = tested on: CCRF-CEM leukemia
[31] = tested on: HOP-62 NSCLC
[32] = tested on: SNB-78 CNS
[33] = tested on: DMS 273 small cell lung
[34] = tested on: UACC-257 melanoma
[35] = tested on: RXF-631 renal
[36] = tested on: SF-539 CNS
[37] = tested on: HCC-2998 colon
[38] = tested on: 786-0 renal
[39] = tested on: SNB-75 CNS
[40] = tested on: MALME-3M melanoma
[41] = tested on: CAKI-1 renal
[42] = tested on: HOP-92 NSCLC
[43] = tested on: M14 melanoma
[44] = tested on: OVCAR-3 ovarian
[45] = tested on: BT-549 breast
[46] = tested on: DMS 114 small cell lung
[47] = tested on: T-47D breast
[48] = tested on: HOP-18 NSCLC
[49] = tested on: IGROV1 ovarian
[50] = tested on: SNB-19 CNS
[51] = tested on: HS 578T breast
[52] = tested on: NCI-H460 lung
[53] = tested on: XF 498 CNS
[54] = tested on: LOX IMVI melanoma
[55] = tested on: SR leukemia
[56] = tested on: SK-MEL-2 melanoma
[57] = tested on: SK-OV-3 ovarian
[58] = tested on: LXFL 529 NSCLC
[59] = tested on: UACC-62 melanoma
[60] = tested on: SF-268 CNS
[61] = tested on: MOLT-4 leukemia
[62] = tested on: OVCAR-5 ovarian
[63] = tested on: SK-MEL-28 melanoma
[64] = tested on: TK-10 renal
[65] = tested on: RXF 393 renal
[66] = tested on: NCI-H226 lung
[67] = tested on: NCI-H23 lung
[68] = tested on: M19-MEL melanoma

Molecule Nc1[nH]c(=O)nc2c1cnn2Cc1ccccc1 has a TGI [1] of over 100 µM, a GI50 [2] of over 100 µM and a TGI [2] of over 100 µM. For the same molecule, the TGI [3] was over 100 µM, the GI50 [4] was over 100 µM and the TGI [4] was over 100 µM. For the same molecule, the TGI [5] was over 100 µM, the TGI [6] was over 100 µM and the GI50 [7] was over 100 µM. The TGI [7] was over 100 µM, the TGI [8] was 2.73 µM and the GI50 [9] was over 100 µM. The TGI [9] was over 100 µM, the TGI [10] was over 100 µM and the TGI [11] was 3.05 µM. The TGI [12] was over 100 µM, the TGI [13] was over 100 µM and the TGI [14] was over 100 µM. For the same molecule, the GI50 [15] was over 100 µM, the TGI [15] was over 100 µM and the TGI [16] was over 100 µM. For the same molecule, the TGI [17] was over 100 µM, the TGI [18] was over 100 µM and the TGI [19] was over 100 µM. It also gave a GI50 [20] of over 100 µM, a TGI [20] of over 100 µM and a TGI [21] of over 100 µM. It also gave a TGI [22] of over 100 µM, a TGI [23] of over 100 µM and a TGI [24] of over 100 µM. The TGI [25] was over 100 µM, the TGI [26] was over 100 µM and the TGI [27] was over 100 µM. It also gave a TGI [28] of over 100 µM, a GI50 [29] of over 100 µM and a TGI [29] of over 100 µM. It also gave a TGI [30] of over 100 µM, a GI50 [31] of over 100 µM and a TGI [31] of over 100 µM. It also gave a TGI [32] of 3.08 µM, a TGI [33] of over 100 µM and a TGI [34] of over 100 µM. The TGI [35] was over 100 µM, the TGI [36] was over 100 µM and the GI50 [37] was over 100 µM. The TGI [37] was over 100 µM, the GI50 [38] was over 100 µM and the TGI [38] was over 100 µM. The TGI [39] was over 100 µM, the TGI [40] was over 100 µM and the TGI [41] was over 100 µM. It also gave a TGI [42] of over 100 µM, a TGI [43] of over 100 µM and a GI50 [44] of over 100 µM. For the same molecule, the TGI [44] was over 100 µM, the GI50 [45] was 36.2 µM and the TGI [45] was over 100 µM. For the same molecule, the TGI [46] was over 100 µM, the GI50 [47] was over 100 µM and the TGI [47] was over 100 µM. It also gave a TGI [48] of over 100 µM, a TGI [49] of over 100 µM and a TGI [50] of over 100 µM. It also gave a GI50 [51] of over 100 µM, a TGI [51] of over 100 µM and a TGI [52] of over 100 µM. It also gave a TGI [53] of over 100 µM, a TGI [54] of over 100 µM and a TGI [55] of over 100 µM. The TGI [56] was over 100 µM, the GI50 [57] was over 100 µM and the TGI [57] was over 100 µM. It also gave a TGI [58] of over 100 µM, a GI50 [59] of over 100 µM and a TGI [59] of over 100 µM. For the same molecule, the TGI [60] was over 100 µM and the TGI [61] was over 100 µM.
Work on C[Si]1(C)C(c2ccccc2)=CC2C(c3ccccc3)(c3ccccc3)OC21c1ccccc1 (centres undefined) yielded a TGI [1] of over 100 µM, a TGI [3] of over 100 µM and a TGI [5] of over 100 µM. For the same molecule, the TGI [6] was over 100 µM, the TGI [8] was over 100 µM and the TGI [10] was over 100 µM. For the same molecule, the TGI [11] was over 100 µM, the TGI [12] was over 100 µM and the TGI [13] was over 100 µM. It also gave a TGI [14] of over 100 µM, a TGI [16] of over 100 µM and a TGI [62] of over 100 µM. The TGI [63] was over 100 µM, the TGI [17] was over 100 µM and the TGI [18] was over 100 µM. The TGI [19] was over 100 µM, the TGI [20] was over 100 µM and the TGI [21] was over 100 µM. The TGI [22] was over 100 µM, the TGI [23] was over 100 µM and the TGI [24] was over 100 µM. The TGI [25] was over 100 µM, the TGI [26] was over 100 µM and the TGI [27] was over 100 µM. For the same molecule, the TGI [30] was over 100 µM, the TGI [31] was over 100 µM and the TGI [33] was over 100 µM. It also gave a TGI [34] of over 100 µM, a TGI [35] of over 100 µM and a TGI [36] of over 100 µM. The TGI [37] was over 100 µM, the TGI [38] was over 100 µM and the TGI [39] was over 100 µM. For the same molecule, the TGI [40] was over 100 µM, the TGI [64] was over 100 µM and the TGI [41] was over 100 µM. The TGI [42] was over 100 µM, the TGI [43] was over 100 µM and the TGI [44] was over 100 µM. For the same molecule, the TGI [46] was over 100 µM, the TGI [65] was over 100 µM and the TGI [66] was over 100 µM. It also gave a TGI [48] of over 100 µM, a TGI [49] of over 100 µM and a TGI [50] of over 100 µM. It also gave a TGI [67] of over 100 µM, a TGI [68] of over 100 µM and a TGI [52] of over 100 µM. For the same molecule, the TGI [53] was over 100 µM, the TGI [54] was over 100 µM and the TGI [55] was over 100 µM. It also gave a TGI [56] of over 100 µM, a TGI [57] of over 100 µM and a TGI [58] of over 100 µM. It also gave a TGI [59] of over 100 µM, a TGI [60] of over 100 µM and a TGI [61] of over 100 µM.
